In patent US9416111B2, “Substituted diazine and triazine spleen tyrosine kinease (Syk) inhibitors” (Merck Sharp & Dohme Corp., priority 2012, dated 2016):

Biological target: T1, recombinant human GST-SYK (Homo sapiens, UniProt P43405)
T1 construct: purchased Carna Biosciences 08-176
Assay: Homogeneous Time-Resolved Fluorescence (HTRF) assay for the recombinant human Syk enzyme
Assay type: biochemical
Conditions: GST-hSYK 5 pM, ATP 25 μM, IC50 rated in classes, read-out: rhSYK Activity
Procedure: Homogeneous Time-Resolved Fluorescence (HTRF) Assay for the Recombinant Human Syk Enzyme
A recombinant GST-hSYK fusion protein was used to measure potency of compounds to inhibit human Syk activity. The recombinant human GST-SYK (Carna Biosciences #08-176) (5 pM final concentration) was incubated with various concentrations of the inhibitor diluted in DMSO (0.1% final concentration) for 10 minutes at room temperature in 15 mM Tris-HCl (pH 7.5), 0.01% tween 20, 2 mM DTT in 384 well plate format. To initiate the reaction the biotinylated substrate peptide (250 nM final concentration) that contains the phosphorylation site for Syk was added with magnesium (5 mM final concentration) and ATP (25 μM final concentration). Final volume of the reaction was 10 μL. Phosphorylation of the peptide was allowed to proceed for 45′ at room temperature. To quench the reaction and detect the phosphorylated product, 2 nM of a Europium-anti-phosphotyrosine antibody (Perkin Elmer #AD0161) and 70 nM SA-APC (Perkin-Elmer #CR130-100) were added together in 15 mM Tris pH 7.5, 40 mM EDTA, 0.01% tween 20. Final volume of the quenching solution was 10 μL. The resulting HTRF signal was measured after 30 minutes on an EnVision (Perkin-Elmer) reader using a time-resolved fluorescence protocol.

IC50 | SMILES
< 100 nM | Cc1cc(Nc2nccc(C(F)(F)F)n2)cc(-c2cnc(N)nc2)c1 [Example 1.3, N-[3-(2-aminopyrimidin-5-yl)-5-methylphenyl]-4-(trifluoromethyl)pyrimidin-2-amine]
100 to 1000 nM | O=C(O)CCc1cc(-c2cccc(Nc3nccc(C(F)(F)F)n3)c2)ncn1 [Example 3.45, 3-[6-(3-{[4-(trifluoromethyl)pyrimidin-2-yl]amino}phenyl)pyrimidin-4-yl]propanoic acid]
< 100 nM | COc1ncc(-c2cc(C)cc(Nc3nccc(C(F)(F)F)n3)c2)cn1 [Example 1.2, N-[3-(2-methoxypyrimidin-5-yl)-5-methylphenyl]-4-(trifluoromethyl)pyrimidin-2-amine]
1000 to 10000 nM | CCOC(=O)CCc1cnc(-c2cccc(Nc3nccc(C(F)(F)F)n3)c2)cn1 [Example 3.3, ethyl 3-[5-(3-{[4-(trifluoromethyl)pyrimidin-2-yl]amino}phenyl)pyrazin-2-yl]propanoate]
< 100 nM | Cc1cc(Nc2nccc(C(F)(F)F)n2)cc(-c2cnc(NCCS(C)(=O)=O)nc2)c1 [Example 2.48, N-[3-methyl-5-(2-{[2-(methylsulfonyl)ethyl]amino}pyrimidin-5-yl)phenyl]-4-(trifluoromethyl)pyrimidin-2-amine]
< 100 nM | Cc1cc(Nc2nccc(C(F)(F)F)n2)cc(-c2cnc(NCC(O)CO)nc2)c1 (stereo not drawn) [Example 2.13, 3-{[5-(3-methyl-5-{[4-(trifluoromethyl)pyrimidin-2-yl]amino}phenyl)pyrimidin-2-yl]amino}propane-1,2-diol]
< 100 nM | CCC1C(=O)NCCN1c1ncc(-c2cc(C)cc(Nc3nccc(C(F)(F)F)n3)c2)cn1 (stereo not drawn) [Example 2.51, 3-ethyl-4-[5-(3-methyl-5-{[4-(trifluoromethyl)pyrimidin-2-yl]amino}phenyl)pyrimidin-2-yl]piperazin-2-one]
< 100 nM | CC(=O)NCCCNc1ncc(-c2cc(C)cc(Nc3nccc(C(F)(F)F)n3)c2)cn1 [Example 2.71, N-(3-{[5-(3-methyl-5-{[4-(trifluoromethyl)pyrimidin-2-yl]amino}phenyl)pyrimidin-2-yl]amino}propyl)acetamide]
< 100 nM | Cc1cc(Nc2nccc(C3CC3)n2)cc(-c2cnc(CCC(=O)O)cn2)c1 [Example 3.12, 3-(5-{3-[(4-cyclopropylpyrimidin-2-yl)amino]-5-methylphenyl}pyrazin-2-yl)propanoic acid]
< 100 nM | Cc1cc(Nc2nccc(C(F)(F)F)n2)cc(-c2cnc(N3CCCC3C(N)=O)nc2)c1 (racemic) [Example 2.74, 1-[5-(3-methyl-5-{[4-(trifluoromethyl)pyrimidin-2-yl]amino}phenyl)pyrimidin-2-yl]prolinamide]
< 100 nM | Cc1cc(Nc2nccc(C(F)(F)F)n2)cc(-c2cnc(N3CCN(C)C(=O)C3C)nc2)c1 (stereo not drawn) [Example 2.67, 1,3-dimethyl-4-[5-(3-methyl-5-{[4-(trifluoromethyl)pyrimidin-2-yl]amino}phenyl)pyrimidin-2-yl]piperazin-2-one]
< 100 nM | Cc1cc(Nc2nccc(C(F)(F)F)n2)cc(-c2cnc(N3CCCC(C)(O)C3)nc2)c1 (stereo not drawn) [Example 2.27, 3-methyl-1-[5-(3-methyl-5-{[4-(trifluoromethyl)pyrimidin-2-yl]amino}phenyl)pyrimidin-2-yl]piperidin-3-ol]
< 100 nM | Cc1cc(Nc2nccc(C(F)(F)F)n2)cc(-c2cnc(NC3CCS(=O)(=O)C3)nc2)c1 (stereo not drawn) [Example 2.16, N-(3-{2-[(1,1-dioxidotetrahydrothiophen-3-yl)amino]pyrimidin-5-yl}-5-methylphenyl)-4-(trifluoromethyl)pyrimidin-2-]
100 to 1000 nM | COCC1CN(c2ncc(-c3cc(C)cc(Nc4nccc(C(F)(F)F)n4)c3)cn2)CCO1 (stereo not drawn) [Example 2.25, N-(3-{2-[2-(methoxymethyl)morpholin-4-yl]pyrimidin-5-yl}-5-methylphenyl)-4-(trifluoromethyl)pyrimidin-2-amine]
100 to 1000 nM | O=C(O)CCc1ccc(-c2cccc(Nc3nccc(C(F)(F)F)n3)c2)nn1 [Example 3.25, 3-[6-(3-{[4-(trifluoromethyl)pyrimidin-2-yl]amino}phenyl)pyridazin-3-yl]propanoic acid]
< 100 nM | Cc1cc(Nc2nccc(C(F)(F)F)n2)cc(-c2cnc(NCCC(N)=O)nc2)c1 [Example 2.39, N~3~-[5-(3-methyl-5-{[4-(trifluoromethyl)pyrimidin-2-yl]amino}phenyl)pyrimidin-2-yl]-beta-alaninamide]
100 to 1000 nM | Cc1cc(Nc2nccc(C)n2)cc(-c2cncc(CCC(=O)O)n2)c1 [Example 3.20, 3-(6-{3-methyl-5-[(4-methylpyrimidin-2-yl)amino]phenyl}pyrazin-2-yl)propanoic acid]
< 100 nM | Cc1cc(Nc2nccc(C(F)(F)F)n2)cc(-c2cnc(CCC(=O)O)nc2)c1 [Example 3.62, 3-[5-(3-methyl-5-{[4-(trifluoromethyl)pyrimidin-2-yl]amino}phenyl)pyrimidin-2-yl]propanoic acid]
1000 to 10000 nM | CCOC(=O)CCc1cncc(-c2cccc(Nc3nccc(C(F)(F)F)n3)c2)n1 [Example 3.13, ethyl 3-[6-(3-{[4-(trifluoromethyl)pyrimidin-2-yl]amino}phenyl)pyrazin-2-yl]propanoate]
< 100 nM | Cc1cc(Nc2nccc(C(F)(F)F)n2)cc(-c2cnc(NCC(C)O)nc2)c1 (stereo not drawn) [Example 2.60, 1-{[5-(3-methyl-5-{[4-(trifluoromethyl)pyrimidin-2-yl]amino}phenyl)pyrimidin-2-yl]amino}propan-2-ol]
< 100 nM | COCCNc1ncc(-c2cc(C)cc(Nc3nccc(C(F)(F)F)n3)c2)cn1 [Example 1.4, N-(3-{2-[(2-methoxyethyl)amino]pyrimidin-5-yl}-5-methylphenyl)-4-(trifluoromethyl)pyrimidin-2-amine]
100 to 1000 nM | CCOC(=O)CCc1ccc(-c2cc(C)cc(Nc3nccc(C(F)(F)F)n3)c2)nn1 [Example 3.27, ethyl 3-[6-(3-methyl-5-{[4-(trifluoromethyl)pyrimidin-2-yl]amino}phenyl)pyridazin-3-yl]propanoate]
100 to 1000 nM | COCC1CCCCN1c1ncc(-c2cc(C)cc(Nc3nccc(C(F)(F)F)n3)c2)cn1 (stereo not drawn) [Example 2.49, N-(3-{2-[2-(methoxymethyl)piperidin-1-yl]pyrimidin-5-yl}-5-methylphenyl)-4-(trifluoromethyl)pyrimidin-2-amine]
100 to 1000 nM | O=C(O)CCc1cnc(-c2cccc(Nc3nccc(C(F)(F)F)n3)c2)cn1 [Example 3.4, 3-[5-(3-{[4-(trifluoromethyl)pyrimidin-2-yl]amino}phenyl)pyrazin-2-yl]propanoic acid]
100 to 1000 nM | Cc1cc(Nc2nccc(C(F)(F)F)n2)cc(-c2ccnnc2)c1 [Example 3.43, N-(3-methyl-5-pyridazin-4-ylphenyl)-4-(trifluoromethyl)pyrimidin-2-amine]
< 100 nM | Cc1cc(Nc2nccc(C(F)(F)F)n2)cc(-c2cnc(N[C@H]3CCC(=O)NC3)nc2)c1 [Example 2.73, (5S)-5-{[5-(3-methyl-5-{[4-(trifluoromethyl)pyrimidin-2-yl]amino}phenyl)pyrimidin-2-yl]amino}piperidin-2-one]
< 100 nM | CCOC(=O)CCc1ncc(-c2cc(C)cc(Nc3nccc(C4CC4)n3)c2)cn1 [Example 1.6, ethyl 3-(5-{3-[(4-cyclopropylpyrimidin-2-yl)amino]-5-methylphenyl}pyrimidin-2-yl)pronanoate]
